TGI data for six molecules are collected here from PubChem BioAssay (NCI).

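Test compounds were applied to cells in 96-well plates for 48 hours at 5 doses. At the TGI there is no net growth.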

Some test systems named below: 786-0 renal; A498 renal; CCRF-CEM leukemia; COLO 205 colon; HCC-2998 colon; HCT-116 colon; HT29 colon; M14 melanoma; MALME-3M melanoma; MCF7 breast; MDA-MB-231 breast; MDA-N; NCI-H522 lung; OVCAR-4 ovarian; SK-MEL-2 melanoma; SR leukemia; T-47D breast; UACC-257 melanoma; UACC-62 melanoma.
What all share (assay): NCI-60 cell line screen, 48 h

On to `COc1cc(/C=C/c2nc(N)nnc2C)cc(OC)c1OC`, for which the TGI in the test on 786-0 renal was above 60.6 µM; with A498 renal it was above 71.6 µM; in the test on CCRF-CEM leukemia it was 55.4 µM; with COLO 205 colon it was above 53 µM; in the test on HCC-2998 colon it was 29.5 µM; with HCT-116 colon, above 53.9 µM. For the same molecule, the TGI was 39 µM with HT29 colon; above 56.4 µM in the test with M14 melanoma; 32.8 µM in the test on MALME-3M melanoma; above 100 µM in the test with MCF7 breast; above 100 µM in the test on MDA-MB-231 breast; above 100 µM in the test on MDA-N. In addition, the TGI in the test on NCI-H522 lung is 21.7 µM; in the test with OVCAR-4 ovarian it was above 73.7 µM; in the test on SK-MEL-2 melanoma, above 54.4 µM; in the test with SR leukemia, above 100 µM; in the test on T-47D breast, above 100 µM; with UACC-257 melanoma, above 59.8 µM. Further, the TGI in the test on UACC-62 melanoma is above 50.3 µM.
As for `COc1c2c(cc3c1OCO3)C13C=CC(OC)CC1N(CC3)C2` (centres undefined), the TGI with 786-0 renal, in the test on A498 renal, in the test with CCRF-CEM leukemia, with COLO 205 colon, in the test with HCC-2998 colon and in the test with HCT-116 colon was above 100 µM each time. Besides, the TGI in the test on HT29 colon, in the test with M14 melanoma, in the test with MALME-3M melanoma, in the test on MCF7 breast, in the test with MDA-MB-231 breast and in the test on MDA-N was above 100 µM in each case. Besides, the TGI was above 100 µM with NCI-H522 lung; above 100 µM in the test on OVCAR-4 ovarian; above 100 µM with SK-MEL-2 melanoma; 22.2 µM in the test with SR leukemia; above 100 µM with T-47D breast; above 100 µM in the test with UACC-257 melanoma. For the same molecule, the TGI in the test with UACC-62 melanoma was above 100 µM.
In the case of `Cc1c(-c2ccccc2)c(C#N)c2nnn(C3CCCCC3)c(=O)n12`, the TGI with 786-0 renal, with A498 renal, in the test with CCRF-CEM leukemia, in the test on COLO 205 colon, in the test on HCC-2998 colon and with HCT-116 colon was above 100 µM each time. The TGI with HT29 colon is above 100 µM; with M14 melanoma, above 100 µM; in the test on MALME-3M melanoma, above 100 µM; in the test on MCF7 breast, above 100 µM; in the test with MDA-MB-231 breast, 66 µM; in the test on MDA-N it was above 100 µM. In addition, the TGI in the test on NCI-H522 lung, in the test on OVCAR-4 ovarian, with SK-MEL-2 melanoma, in the test on SR leukemia, with T-47D breast and with UACC-257 melanoma was above 100 µM throughout. In the test on UACC-62 melanoma, this molecule displayed a TGI above 100 µM.
Regarding `CCCCCCCNC(P(=O)(O)O)P(=O)(O)O`, the TGI with 786-0 renal, with A498 renal, in the test on CCRF-CEM leukemia, in the test on COLO 205 colon, in the test on HCC-2998 colon and with HCT-116 colon was above 100 µM each time. Besides, the TGI in the test on HT29 colon, with M14 melanoma, with MALME-3M melanoma, with MCF7 breast, in the test with MDA-MB-231 breast and in the test with MDA-N was above 100 µM in each case. The TGI with NCI-H522 lung, in the test on OVCAR-4 ovarian, in the test with SK-MEL-2 melanoma, with SR leukemia, in the test on T-47D breast and with UACC-257 melanoma was above 100 µM each time. The TGI with UACC-62 melanoma was above 100 µM.
Turning to `Cc1cc(=O)[nH]c2cc(NC(=O)C(CCCN=C(N)N)NC(=O)OCc3ccccc3)ccc12` (centres undefined), the TGI with 786-0 renal, with A498 renal, with CCRF-CEM leukemia, with COLO 205 colon, in the test with HCC-2998 colon and with HCT-116 colon was above 100 µM each time. Further, the TGI in the test with HT29 colon, in the test on M14 melanoma, in the test on MALME-3M melanoma, in the test with MCF7 breast, in the test with MDA-MB-231 breast and in the test on MDA-N was above 100 µM throughout. Also, the TGI with NCI-H522 lung, with OVCAR-4 ovarian, in the test with SK-MEL-2 melanoma, with SR leukemia, in the test with T-47D breast and with UACC-257 melanoma was above 100 µM in each case. This molecule also came in with a TGI in the test on UACC-62 melanoma above 100 µM.
For the molecule `NC(=O)C(=CNC(=S)Nc1ccc(Cl)c(Cl)c1)C(N)=O`, the TGI in the test on 786-0 renal, in the test on A498 renal, with CCRF-CEM leukemia, in the test on COLO 205 colon, with HCC-2998 colon and in the test with HCT-116 colon was above 100 µM each time. The TGI with HT29 colon, in the test with M14 melanoma, with MALME-3M melanoma, with MCF7 breast, in the test on MDA-MB-231 breast and with MDA-N was above 100 µM each time. The TGI is 72.3 µM in the test with NCI-H522 lung; above 100 µM in the test with OVCAR-4 ovarian; above 100 µM with SK-MEL-2 melanoma; above 100 µM in the test with SR leukemia; above 72.9 µM in the test on T-47D breast; above 100 µM in the test with UACC-257 melanoma. For the same molecule, in the test with UACC-62 melanoma, the TGI is above 100 µM.
